# Patent US8288431B2, “Substituted spiroindolinones” (Hoffmann-La Roche Inc., priority 2010, dated 2012)
# Molecular target: interaction between p53 and MDM2 proteins (recombinant GST-tagged MDM2, biotinylated p53 peptide) (Homo sapiens, UniProt Q00987)
# Test: HTRF (homogeneous time-resolved fluorescence) assay of p53-MDM2 interaction
# Assay type: binding
# Conditions: bsa 0.02%
# Experimental: The ability of the compounds to inhibit the interaction between p53 and MDM2 proteins was measured by an HTRF (homogeneous time-resolved fluorescence) assay in which recombinant GST-tagged MDM2 binds to a peptide that resembles the MDM2-interacting region of p53 (Lane et al.). Binding of GST-MDM2 protein and p53-peptide (biotinylated on its N-terminal end) is registered by the FRET (fluorescence resonance energy transfer) between Europium (Eu)-labeled anti-GST antibody and streptavidin-conjugated Allophycocyanin (APC).
# Add 10 uL diluted compounds (1:5 dilution in reaction buffer) to each well, mix by shaking. Add 20 uL biotinylated p53 peptide (180 nM working solution) in reaction buffer to each well and mix on shaker. Incubate at 37° C. for 1 h. Add 20 uL streptavidin-APC and Eu-anti-GST antibody mixture (6 nM Eu-anti-GST and 60 nM streptavidin-APC working solution) in TBS buffer with 0.2% BSA, shake at room temperature for 30 minutes and read using a TRF-capable plate reader at
# 665 and 615 nm (Victor 5, Perkin ElmerWallac). If not specified, the reagents were purchased from Sigma Chemical Co.
# Sequence of interaction between p53 and MDM2 proteins (recombinant GST-tagged MDM2, biotinylated p53 peptide) (Q00987 whole entry): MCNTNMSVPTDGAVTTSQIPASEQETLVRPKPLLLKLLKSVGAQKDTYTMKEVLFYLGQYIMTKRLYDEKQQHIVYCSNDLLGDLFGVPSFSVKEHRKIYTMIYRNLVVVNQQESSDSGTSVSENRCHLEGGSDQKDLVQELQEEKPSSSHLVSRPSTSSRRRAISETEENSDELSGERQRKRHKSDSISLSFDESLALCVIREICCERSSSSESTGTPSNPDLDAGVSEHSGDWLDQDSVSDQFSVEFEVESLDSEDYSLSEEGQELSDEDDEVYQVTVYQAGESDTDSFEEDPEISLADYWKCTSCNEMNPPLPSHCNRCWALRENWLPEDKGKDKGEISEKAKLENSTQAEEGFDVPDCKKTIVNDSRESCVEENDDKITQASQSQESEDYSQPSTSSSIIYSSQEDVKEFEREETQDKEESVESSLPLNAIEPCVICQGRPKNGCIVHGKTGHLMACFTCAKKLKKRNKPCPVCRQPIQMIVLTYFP
row,IC50,Structure (SMILES)
1,725 nM,"CC(C)(CO)C[C@@H]1CN(C(=O)NCC[C@H](O)CO)[C@H](c2cccc(Cl)c2F)[C@]12C(=O)Nc1cc(Cl)ccc12 (mixture of isomers) [Example 33, rac-(2′S,3′S,4′S)-6-chloro-2′-(3-chloro-2-fluoro-phenyl)-4′-(3-hydroxy-2,2-dimethyl-propyl)-2-oxo-1,2-dihydro-spiro[indole-3,3′-pyrrolidine]-1′-carboxylic acid ((S)-3,4-dihydroxy-butyl)-amide]"
2,178 nM,"CC(C)(C)C[C@@H]1CN(C(=O)OCc2ccc(C(=O)O)cc2)[C@H](c2cccc(Cl)c2F)[C@]12C(=O)Nc1cc(Cl)ccc12 (racemic) [Example 49, rac-(2′S,3′S,4′S)-6-chloro-2′-(3-chloro-2-fluoro-phenyl)-4′-(2,2-dimethyl-propyl)-2-oxo-1,2-dihydro-spiro[indole-3,3′-pyrrolidine]-1′-carboxylic acid 4-carboxy-benzyl ester]"

# Further lines, the compound ahead of its results:
row,Structure (SMILES),IC50
1,"CC(C)(C)C[C@@H]1CN[C@H](c2cccc(Cl)c2F)[C@]12C(=O)Nc1cc(Cl)ccc12 (racemic) [Example 6, rac-(2′S,3′S,4′S)-6-chloro-2′-(3-chloro-2-fluoro-phenyl)-4′-(2,2-dimethyl-propyl)-1H-spiro[indole-3,3′-pyrrolidin]-2-one]",773 nM
2,"COC(=O)c1ccc(NC(=O)N2C[C@@H](CC(C)(C)C)[C@@]3(C(=O)Nc4cc(Cl)ccc43)[C@H]2c2cccc(Cl)c2F)cc1 (racemic) [Example 12, rac-4-{[(2′S,3′S,4′S)-6-chloro-2′-(3-chloro-2-fluoro-phenyl)-4′-(2,2-dimethyl-propyl)-2-oxo-1,2-dihydro-spiro[indole-3,3′-pyrrolidin]e-1′-carbonyl]-amino}-benzoic acid methyl ester]",581 nM
3,"CC(C)(C)C[C@@H]1CN(C(=O)NC2CCN(S(C)(=O)=O)CC2)[C@H](c2cccc(Cl)c2F)[C@]12C(=O)Nc1cc(Cl)ccc12 [Example 28, chiral (2′S,3′S,4′S)-6-chloro-2′-(3-chloro-2-fluoro-phenyl)-4′-(2,2-dimethyl-propyl)-2-oxo-1,2-dihydro-spiro[indole-3,3′-pyrrolidine]-1′-carboxylic acid (1-methanesulfonyl-piperidin-4-yl)-amide]",133 nM
